Several values for one entry are separate records, joined by “and”; a condition that tells them apart may be missing. Equal values may be shown once. Read-outs that look alike come from different tables or passages of the source.
How the values were obtained:
NF-κB activation = experiment: NF-κB firefly luciferase reporter assay, TNF-α-stimulated stably transfected HEK293 cells; type: cell-based, human; details: for NF-κB luciferase activity normalized to control: control = 100; for NF-κB luciferase activity normalized to vehicle: Fig 2C, derivatives at 100 μM, TNF-α 10 ng/ml 3 h, vehicle = 100, single experiments
Protocol: To determine whether the small molecules identified by the in silico screening inhibit NF-κB activation, a HEK293 cell line stably expressing a luciferase reporter driven by a synthetic, NF-κB-dependent promoter was utilized. To induce NF-κB activation, cells were treated with 10 ng/mL of TNF-α and harvested 3 h post treatment for analysis of luciferase activity. […] To determine whether ZINC12909780 inhibits NF-κB in a dose-dependent manner, concentrations were tested at 0, 6.25, 25, 50, and 100 μM.
Luciferase activity was normalized to untreated stimulated control cells. […] Cell viability was calculated by normalizing to untreated cells. […] Underlying data can be found in S1 Data.
HEK293 cells stably transfected with luciferase reporter plasmid driven by NF-κB were seeded in 96-well plates in triplicate and pretreated with DMSO or varying small molecules at indicated concentration for 30 min, followed by the stimulation of 10 ng/ml of TNF-α for 3 h. Cells were washed with PBS once and harvested in Passive Lysis Buffer (Promega, Madison, WI). Luciferase assay (Promega) was performed by using a luminometer according to the manufacturer’s instructions.

[1] = Mouse PK, i.v. and oral gavage; type: in vivo; details: for bioavailability: PO 10mg/Kg versus IV, Avg.
Protocol: Supplementary file pbio.2004663.s002.tif: S1 Fig IC50 and the complete pharmacokinetic profiles of NBD mimetics. (A) Dose-dependent curve of NBD mimetics ranging from 0 to 150 μM was determined by NF-κB luciferase assays in HEK293 cells. (B) Complete pharmacokinetic profiles of SR12460 and SR12343 administered i.v. or by oral gavage in mice. Underlying data can be found in S1 Data. AUC%Extrap, percentage of the area under the curve extrapolated to infinity from Tlast to infinity; AUCINF_obs, area under the curve from 0 to infinity; AUClast, area under the curve from the time of dosing to the last measurable concentration; Cmax, maximum observed concentration; Clobs, total serum clearance; HEK, human embryonic kidney 293 cells; IC50, half maximal inhibitory concentration; NBD, NEMO-binding domain; NEMO, NF-κB essential modulator; NF-κB, nuclear factor κB; T1/2, half-life; Tmax, time of maximum concentration. (TIF) Click here for additional data file.

mdx mice = experiment: Chronic treatment of mdx mice, laminin stain and minimum Feret diameter of myofibers; type: in vivo, mouse; details: Fig 7F, TA muscle, 4 wk treatment, single mice
Source text: Fig 7 NBD mimetics improve muscular pathology and grip strength in mdx mice. (A) Shown is the treatment regimen with NBD mimetics in mdx mice. (B) Hematoxylin–eosin staining of TA muscle from 7-wk-old, treated or untreated mdx mice. Images were taken at magnification of 20×. Representative images were shown for each treatment group. […] (E) TA muscle from 7-wk-old, treated or untreated mdx mice was stained with laminin by IHC to outline myofibers. Overall images of TA muscle were shown on the left side, and the inset panel images were shown on the right side. (F) Quantitation of minimum Feret diameter in centrally and noncentrally nucleated myofibers. (G) Forelimb force determined by grip strength test. Five-wk-old (2 wk post treatment) and 7-wk-old (4 wk post treatment) mdx mice, treated or untreated, were tested for forelimb grip strength. Five sequential tests were performed, and the force was normalized to body weight. Data were shown as mean +/− SEM. Dosages used are as follows: SR12343 (30 mg/kg), SR12460 (30 mg/kg), and 8K-NBD peptide (10 mg/kg). n = 6–7 each group. *P < 0.05, **P < 0.01. Underlying data can be found in S1 Data. eMyHC, embryonic myosin heavy chain; IHC, immunohistochemistry; NBD, NEMO-binding domain; NEMO, NF-κB essential modulator; Pax7, paired box protein 7; qRT-PCR, quantitative real-time polymerase chain reaction; TA, tibialis anterior.
To determine whether SR12343 and SR12460 improve muscle pathology, TA muscle was stained with hematoxylin–eosin to assess inflammatory infiltration, necrosis, central nucleation, and fibrosis. […] In addition, Masson trichrome stain was conducted to further measure muscle fibrosis. Chronic treatment with SR12343 reduced muscle fibrosis (blue) in diaphragm and TA muscle tissues in comparison to control group (Fig 8A & 8B). To further quantitate the extent of inflammation in mdx muscle tissues, diaphragm and TA muscle were immunostained for cluster of differentiation 68 (CD68), a macrophage marker. Treatment with SR12343 reduced the number of CD68^+ cells by almost 50% per myofiber in both diaphragm and TA tissues (Fig 8A & 8B). […] To quantify the average fiber size in an unbiased way, TA muscle was stained with laminin to outline myofibers, and Feret diameter of all myocytes was quantitated in a whole muscle section.
To ensure rigorous quantitation of average fiber size, TA muscle was stained with laminin to outline myofibers. […] Centrally nucleated fibers were determined by first eroding the binary mask of the muscle fibers so that only the central portion of each fiber was present. […] Using the original muscle fiber mask, Feret diameters for centrally nucleated and noncentrally nucleated fibers were then measured.

[2] = PO 10mg/Kg, single mice and Avg., 10 mg/kg
[3] = PO 10mg/Kg, single mice and Avg., 10 mg/kg, mean
[4] = mouse, serum, po, 10 mg/kg, PO 10mg/Kg, single mice and Avg.
[5] = IV 2mg/Kg, single mice and Avg., 2 mg/kg
[6] = IV 2mg/Kg, single mice and Avg., 2 mg/kg, mean

## Nc1ncccc1C(=O)OCC(=O)Nc1ccc(Cl)cc1F [ZINC12909780]
NF-κB activation; Fig 2B, 6.25 μM (log 0.79588)
  NF-κB luciferase activity normalized to control: 96.2175 and 102.44 and 115.164
NF-κB activation; Fig 2B, 25 μM (log 1.39794)
  NF-κB luciferase activity normalized to control: 93.2591 and 96.1802 and 73.5256

## O=C(COC(=O)Cc1ccccc1F)Nc1ccc(Cl)cn1 [ZINC5]
NF-κB activation
  NF-κB luciferase activity normalized to vehicle: 58.79 and 64.16 and 89.81 and 46.87 and 48.05
NF-κB activation; listed as Zinc5
  NF-κB luciferase activity normalized to vehicle: lowered NF-κB activity robustly
NF-κB activation; Fig 2E, 25 μM
  NF-κB luciferase activity normalized to control: 78.88 and 74.23 and 94.1 and 85.57 and 85.27
NF-κB activation; Fig 2E, 50 μM
  NF-κB luciferase activity normalized to control: 78.97 and 56.84 and 56.56 and 66.34
NF-κB activation; Fig 2E, 100 μM
  NF-κB luciferase activity normalized to control: 40.8 and 50.51 and 60.75 and 33.05 and 42.78

## O=C(CNc1ccc(Cl)cn1)NCCc1cccc(Br)c1 [SR12343]
[1]; IV 1mg/Kg, single mice and Avg., 1 mg/kg
  AUC %Extrap: 0.68% and 0.92% and 0.30%
[1]; IV 1mg/Kg, single mice and Avg., 1 mg/kg, mean
  AUC %Extrap: 0.63%
[1]; [2]
  AUC %Extrap: 0.51% and 0.40% and 0.32%
  AUCINF_obs: 11013 ng·min/mL and 20121 ng·min/mL
  Cl_obs: 862.00 mL/min/kg and 908.01 mL/min/kg and 497.00 mL/min/kg
  T1/2: 0.50 h
[1]; [3]
  AUC %Extrap: 0.41%
  AUCINF_obs: 14245 ng·min/mL
  Cl_obs: 755.67 mL/min/kg
  T1/2: 0.53 h
[1]; S1B Fig
  Oral activity (comparison): not as orally active as SR123460
[1]; mouse, serum, iv, 1 mg/kg, IV 1mg/Kg, single mice and Avg., read-out: Tmax
  Tmax: 0.08 h
[1]; [4]
  AUC(0-t): 192 ng·h/mL and 0.52 µM·h
  Cmax: 523 ng/mL and 1.43 µM
  half-life: 0.58 h
[1]; mouse, serum, po, 10 mg/kg, PO 10mg/Kg, single mice and Avg., read-out: AUCINF_obs (converted)
  AUC(0-inf): 193 ng·h/mL
[1]; mouse, serum
  bioavailability: 0.86%
Mdx mice
  Feret 90's of non-centrally nucleated fibers: 30.77 and 40.26 and 44.29 and 46.1
  Feret's of centrally nucleated fibers: 29.8 and 35.12 and 37.33 and 39.93

## O=C(CNCCc1cc(F)cc(F)c1)Nc1ccc(Cl)cn1 [SR12460]
[1]; [5]
  AUC %Extrap: 17.95% and 11.52%
  MRTINF_obs: 3.50 h
  T1/2: 2.57 h
  Vss_obs: 0.17 L/kg and 0.30 L/kg
[1]; [6]
  AUC %Extrap: 14.74%
  MRTINF_obs: 3.99 h
  T1/2: 2.99 h
  Vss_obs: 0.23 L/kg
[1]; [2]
  T1/2: 1.99 h and 1.74 h
  Tmax: 1.00 h
[1]; [3]
  T1/2: 2.35 h
  Tmax: 0.67 h
[1]; mouse, serum, iv, 2 mg/kg, IV 2mg/Kg, single mice and Avg.
  half-life: 3.42 h
[1]; mouse, serum, iv, 2 mg/kg, IV 2mg/Kg, single mice and Avg., read-out: MRTINF_obs
  MRT inf: 4.49 h
[1]; [4]
  AUC(0-t): 47600 ng·h/mL and 146 µM·h
  Cmax: 11200 ng/mL and 34.5 µM
  half-life: 3.31 h
[1]; mouse, serum, po, 10 mg/kg, PO 10mg/Kg, single mice and Avg., read-out: Tmax
  Tmax: 0.5 h
[1]; mouse, serum
  bioavailability: 20.1%
Mdx mice
  Feret 90's of non-centrally nucleated fibers: 42.38 and 57.7 and 50.27 and 41.83 and 37.95
  Feret's of centrally nucleated fibers: 36.18 and 50.79 and 43.17 and 46.06 and 34.34
